Source: ChEMBL document CHEMBL4715697, “Synthesis and biological activity of benzamide DNA minor groove binders” (2016)

Legend:
Type in all cases: functional
[1] = tested on: U-251; assay: Growth inhibition of human U-251 cells assessed as cell growth at 0.01 uM incubated for 48 hrs by sulforhodamine B assay relative to control; conditions: read-out: Activity
[2] = tested on: BT-549; assay: Growth inhibition of human BT-549 cells assessed as cell growth at 0.1 uM incubated for 48 hrs by sulforhodamine B assay relative to control; conditions: read-out: Activity
[3] = tested on: M14; assay: Growth inhibition of human M14 cells assessed as cell growth at 0.1 uM incubated for 48 hrs by sulforhodamine B assay relative to control; conditions: read-out: Activity
[4] = tested on: HCC 2998; assay: Growth inhibition of human HCC 2998 cells incubated for 48 hrs by sulforhodamine B assay
[5] = tested on: NCI-H322M; assay: Growth inhibition of human NCI-H322M cells assessed as cell growth at 100 uM incubated for 48 hrs by sulforhodamine B assay relative to control; conditions: read-out: Activity
[6] = tested on: NCI/ADR-RES; assay: Growth inhibition of human NCI/ADR-RES cells assessed as cell growth at 1 uM incubated for 48 hrs by sulforhodamine B assay relative to control; conditions: read-out: Activity
[7] = tested on: SK-MEL-2; assay: Growth inhibition of human SK-MEL-2 cells assessed as cell growth at 1 uM incubated for 48 hrs by sulforhodamine B assay relative to control; conditions: read-out: Activity
[8] = tested on: SW-620; assay: Growth inhibition of human SW-620 cells incubated for 48 hrs by sulforhodamine B assay
[9] = tested on: Hs-578T; assay: Growth inhibition of human Hs-578T cells incubated for 48 hrs by sulforhodamine B assay
[10] = tested on: SNB-75; assay: Growth inhibition of human SNB-75 cells assessed as cell growth at 1 uM incubated for 48 hrs by sulforhodamine B assay relative to control; conditions: read-out: Activity
[11] = tested on: NCI-H226; assay: Growth inhibition of human NCI-H226 cells incubated for 48 hrs by sulforhodamine B assay
[12] = tested on: SR; assay: Growth inhibition of human SR cells assessed as cell growth at 100 uM incubated for 48 hrs by sulforhodamine B assay relative to control; conditions: read-out: Activity
[13] = tested on: NCI-H522; assay: Growth inhibition of human NCI-H522 cells assessed as cell growth at 0.1 uM incubated for 48 hrs by sulforhodamine B assay relative to control; conditions: read-out: Activity
[14] = tested on: MOLT-4; assay: Growth inhibition of human MOLT-4 cells assessed as cell growth at 100 uM incubated for 48 hrs by sulforhodamine B assay relative to control; conditions: read-out: Activity
[15] = tested on: UO-31; assay: Growth inhibition of human UO-31 cells assessed as cell growth at 100 uM incubated for 48 hrs by sulforhodamine B assay relative to control; conditions: read-out: Activity
[16] = tested on: MDA-MB-468; assay: Growth inhibition of human MDA-MB-468 cells assessed as cell growth at 100 uM incubated for 48 hrs by sulforhodamine B assay relative to control; conditions: read-out: Activity
[17] = tested on: UACC-62; assay: Growth inhibition of human UACC-62 cells assessed as cell growth at 100 uM incubated for 48 hrs by sulforhodamine B assay relative to control; conditions: read-out: Activity
[18] = tested on: NCI-H322M; assay: Growth inhibition of human NCI-H322M cells incubated for 48 hrs by sulforhodamine B assay
[19] = tested on: KM12; assay: Growth inhibition of human KM12 cells assessed as cell growth at 0.1 uM incubated for 48 hrs by sulforhodamine B assay relative to control; conditions: read-out: Activity
[20] = tested on: OVCAR-4; assay: Growth inhibition of human OVCAR-4 cells assessed as cell growth at 0.01 uM incubated for 48 hrs by sulforhodamine B assay relative to control; conditions: read-out: Activity
[21] = tested on: U-251; assay: Growth inhibition of human U-251 cells assessed as cell growth at 100 uM incubated for 48 hrs by sulforhodamine B assay relative to control; conditions: read-out: Activity
[22] = tested on: IGROV-1; assay: Growth inhibition of human IGROV-1 cells assessed as cell growth at 100 uM incubated for 48 hrs by sulforhodamine B assay relative to control; conditions: read-out: Activity
[23] = tested on: TK-10; assay: Growth inhibition of human TK-10 cells incubated for 48 hrs by sulforhodamine B assay
[24] = tested on: HCT-15; assay: Growth inhibition of human HCT-15 cells incubated for 48 hrs by sulforhodamine B assay
[25] = tested on: RPMI-8226; assay: Growth inhibition of human RPMI-8226 cells assessed as cell growth at 100 uM incubated for 48 hrs by sulforhodamine B assay relative to control; conditions: read-out: Activity
[26] = tested on: MOLT-4; assay: Growth inhibition of human MOLT-4 cells assessed as cell growth at 0.01 uM incubated for 48 hrs by sulforhodamine B assay relative to control; conditions: read-out: Activity
[27] = tested on: OVCAR-5; assay: Growth inhibition of human OVCAR-5 cells assessed as cell growth at 100 uM incubated for 48 hrs by sulforhodamine B assay relative to control; conditions: read-out: Activity
[28] = tested on: HL-60(TB); assay: Growth inhibition of human HL-60(TB) cells assessed as cell growth at 0.01 uM incubated for 48 hrs by sulforhodamine B assay relative to control; conditions: read-out: Activity
[29] = tested on: IGROV-1; assay: Growth inhibition of human IGROV-1 cells assessed as cell growth at 1 uM incubated for 48 hrs by sulforhodamine B assay relative to control; conditions: read-out: Activity
[30] = tested on: HCT-116; assay: Growth inhibition of human HCT-116 cells assessed as cell growth at 0.1 uM incubated for 48 hrs by sulforhodamine B assay relative to control; conditions: read-out: Activity
[31] = tested on: CCRF-CEM; assay: Growth inhibition of human CCRF-CEM cells assessed as cell growth at 100 uM incubated for 48 hrs by sulforhodamine B assay relative to control; conditions: read-out: Activity
[32] = tested on: HT-29; assay: Growth inhibition of human HT-29 cells assessed as cell growth at 1 uM incubated for 48 hrs by sulforhodamine B assay relative to control; conditions: read-out: Activity
[33] = tested on: SNB-19; assay: Growth inhibition of human SNB-19 cells assessed as cell growth at 100 uM incubated for 48 hrs by sulforhodamine B assay relative to control; conditions: read-out: Activity
[34] = tested on: IGROV-1; assay: Growth inhibition of human IGROV-1 cells incubated for 48 hrs by sulforhodamine B assay
[35] = read-out: LC50 (the source's name)
[36] = read-out: pLC50 (the source's name) (converted)

With `CC(=O)Nc1cc(CO[Si](C)(C)C(C)(C)C)cc(NC(=O)c2ccc(C(=O)Nc3cccc(NC(=O)CCCN(C)C)c3)cc2)c1` the growth at 0.01 µM [1] was 101%, the growth at 0.1 µM [2] was 93% and the growth at 0.1 µM [3] was 95%. For the same compound, the GI50 ([4]; read-out: GI50) was > 75 µM, the CC50 [4, 35] was > 75 µM and the TGI ([4]; read-out: TGI) was > 75 µM. For the same compound, the GI50 ([4]; read-out: pGI50 (converted)) was > 75.9 µM, the CC50 [4, 36] was > 75.9 µM and the TGI ([4]; read-out: pTGI) was > 75.9 µM. The growth at 100 µM [5] was 74%, the growth at 1 µM [6] was 97% and the growth at 1 µM [7] was 112%. For the same compound, the GI50 ([8]; read-out: GI50) was > 75 µM, the LC50 ([8]; read-out: LC50) was > 75 µM and the TGI ([8]; read-out: TGI) was > 75 µM. The GI50 ([8]; read-out: pGI50 (converted)) was > 75.9 µM, the LC50 ([8]; read-out: pLC50 (converted)) was > 75.9 µM and the TGI ([8]; read-out: pTGI) was > 75.9 µM. The GI50 ([9]; read-out: GI50) was > 75 µM, the CC50 [9, 35] was > 75 µM and the TGI ([9]; read-out: TGI) was > 75 µM. The GI50 ([9]; read-out: pGI50 (converted)) was > 75.9 µM, the CC50 [9, 36] was > 75.9 µM and the TGI ([9]; read-out: pTGI) was > 75.9 µM. The growth at 1 µM [10] was 80%, the GI50 ([11]; read-out: GI50) was > 75 µM and the CC50 [11, 35] was > 75 µM. For the same compound, the TGI ([11]; read-out: TGI) was > 75 µM, the GI50 ([11]; read-out: pGI50 (converted)) was > 75.9 µM and the CC50 [11, 36] was > 75.9 µM. The TGI ([11]; read-out: pTGI) was > 75.9 µM, the growth at 100 µM [12] was 116% and the growth at 0.1 µM [13] was 91%. For the same compound, the growth at 100 µM [14] was 98%, the growth at 100 µM [15] was 89% and the growth at 100 µM [16] was 103%. The growth at 100 µM [17] was 72%, the GI50 ([18]; read-out: GI50) was > 75 µM and the CC50 [18, 35] was > 75 µM. The TGI ([18]; read-out: TGI) was > 75 µM, the GI50 ([18]; read-out: pGI50 (converted)) was > 75.9 µM and the CC50 [18, 36] was > 75.9 µM. For the same compound, the TGI ([18]; read-out: pTGI) was > 75.9 µM, the growth at 0.1 µM [19] was 100% and the growth at 0.01 µM [20] was 95%. The growth at 100 µM [21] was 89%, the growth at 100 µM [22] was 75% and the GI50 ([23]; read-out: GI50) was > 75 µM. The CC50 [23, 35] was > 75 µM, the TGI ([23]; read-out: TGI) was > 75 µM and the GI50 ([23]; read-out: pGI50 (converted)) was > 75.9 µM. The CC50 [23, 36] was > 75.9 µM, the TGI ([23]; read-out: pTGI) was > 75.9 µM and the GI50 ([24]; read-out: GI50) was > 75 µM. The CC50 [24, 35] was > 75 µM, the TGI ([24]; read-out: TGI) was > 75 µM and the GI50 ([24]; read-out: pGI50 (converted)) was > 75.9 µM. The CC50 [24, 36] was > 75.9 µM, the TGI ([24]; read-out: pTGI) was > 75.9 µM and the growth at 100 µM [25] was 104%. The growth at 0.01 µM [26] was 87%, the growth at 100 µM [27] was 79% and the growth at 0.01 µM [28] was 102%. It also gave a growth at 1 µM [29] of 81%, a growth at 0.1 µM [30] of 99% and a growth at 100 µM [31] of 112%. The growth at 1 µM [32] was 113%, the growth at 100 µM [33] was 95% and the GI50 ([34]; read-out: GI50) was > 75 µM. For the same compound, the CC50 [34, 35] was > 75 µM, the TGI ([34]; read-out: TGI) was > 75 µM and the GI50 ([34]; read-out: pGI50 (converted)) was > 75.9 µM. The CC50 [34, 36] was > 75.9 µM and the TGI ([34]; read-out: pTGI) was > 75.9 µM.
